Measured values taken from patent publication US5220042A, “1,4-benzoquinone derivatives and benzene derivatives, and process for preparing the same” (priority 1984, dated 1993).
Like-named read-outs stand apart in the source and are kept apart here.

Tests used:
[1] = biological target: T1, 5-lipoxygenase (Cavia porcellus, UniProt A0A286X958); assay: 5-Lipoxygenase inhibitory activity (conversion of 14C-arachidonic acid to 5-HETE) in guinea pig peritoneal exudate cells; format: cell-based, guinea pig (Hartley strain); details: read-out: inhibition ratio (%) of 5-lipoxygenase activity; for inhibition at 30 µM: concentration 3 × 10^-5 M; for inhibition at 3 µM: concentration 3 × 10^-6 M; for inhibition at 10 µM: concentration 10^-5 M; for inhibition at 1 µM: concentration 10^-6 M; for inhibition at 0.3 µM: concentration 3 × 10^-7 M; for inhibition at 0.1 µM: concentration 10^-7 M
T1 construct: endogenous in cells; host or cells: guinea pig (Hartley strain) casein-elicited peritoneal exudate cells, intact cell suspension
T1 sequence (A0A286X958 1-674): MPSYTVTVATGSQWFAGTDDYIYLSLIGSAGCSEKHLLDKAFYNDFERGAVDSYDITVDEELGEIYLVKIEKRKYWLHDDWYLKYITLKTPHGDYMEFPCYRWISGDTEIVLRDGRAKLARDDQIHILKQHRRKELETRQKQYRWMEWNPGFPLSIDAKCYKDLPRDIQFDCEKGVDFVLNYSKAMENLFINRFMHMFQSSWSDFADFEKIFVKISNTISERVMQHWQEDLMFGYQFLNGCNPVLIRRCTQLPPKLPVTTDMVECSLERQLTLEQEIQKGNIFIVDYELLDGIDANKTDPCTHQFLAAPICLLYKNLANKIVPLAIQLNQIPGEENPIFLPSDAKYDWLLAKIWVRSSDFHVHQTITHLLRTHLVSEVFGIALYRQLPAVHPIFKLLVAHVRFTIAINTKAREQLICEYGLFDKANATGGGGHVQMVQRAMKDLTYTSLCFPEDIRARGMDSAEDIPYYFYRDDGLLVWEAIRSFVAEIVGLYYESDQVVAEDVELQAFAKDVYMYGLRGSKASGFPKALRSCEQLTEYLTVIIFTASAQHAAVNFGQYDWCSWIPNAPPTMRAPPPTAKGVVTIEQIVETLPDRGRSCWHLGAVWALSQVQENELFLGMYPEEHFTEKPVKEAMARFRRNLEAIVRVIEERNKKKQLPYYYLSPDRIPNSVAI
Protocol: 5-Lipoxygenase inhibitory activity of the present compounds was determined by a method according to procedures described in "J. Biol. Chem., Vol. 256, pages 4156-4159, (1981, Ibid. Vol. 258, pages 5754-5758 (1983).
(1) Preparation of Test Cells
A guinea pig (Hartley strain) (500-650 g body weight) was intraperitoneally administered with 2%-casein solution in 3/50 the volume of body weight. 14 Hours after the administration, the animal was sacrificed by bleeding and the peritoneal cavity was washed with Dulbecco's phosphate buffered saline (PBS) containing 3 U/ml of heparin and the exudate cells were harvested. The sample of cells was washed twice with Dulbecco's PBS (-), then the cells were suspended in Dulbecco's PBS (-), containing 1 mM of calcium chloride and 5.5 mM of glucose, so as to make a suspension having the concentration of 2.5×10^7 cells/ml.
To 0.2 ml of the above-mentioned cell suspension was added 10^-5 M of Indomethacine, and incubated at 30° C. for 2 minutes. Each of the appropriate concentrations of test compounds was added to the suspension respectively, further incubated for 2 minutes. Next, 10 μm of Ionophore A23187 (manufactured by Calbiochem-Behring, San Diego, Calif., U. S. A) was added to the suspension, further, 10 μm of ^14 C-arachidonic acid (manufactured by Amersham Japan, Ltd., Tokyo, Japan) was added and initiated the reaction. 3 Minutes after the initiation of the reaction, 0.1 ml of 0.2M-citric acid was added so as to terminate the reaction. 1.2 Milliliters of ethyl acetate was added to the reaction mixture and shaked for 5 minutes. The reaction mixture was centrifuged at 3,000 rpm for 5 minutes so as to separate the organic layer from the aqueous layer. 1 Milliliter of the organic layer (the upper layer) was dehydrated by passing through a mini-column packed with anhydrous sodium sulfate. The dehydrated organic layer was dried under nitrogen gas stream. The residue obtained was dissolved in ethyl acetate, and the total amount of the ethyl acetate solution was spotted onto thin layer chromochromatography (TCL) plate (Art. 11845 manufactured by E. Merck A. G.). The TCL was carried out with a mixed solvent of diethyl ether:petroleum:ether:acetic acid (50:50:1 volume/volume), then the radioactive metabolites on the plate were detected by using "Ultrafilm ^3 H" (a trademark for a X-ray film, manufactured by LKB Co.). Each fractions corresponding to the metabolites was scraped in to a scintillation vial, and 5 ml of "Scintilator ACS-II" (manufactured by Amersham Japan, Ltd.), was added then the radio-activity was determined by means of a liquid scintillation counter.

[2] = tested on: SRS-A release from lung fragments; assay: Inhibition of SRS-A release from sensitized guinea pig lung fragments; format: cell-based, guinea pig (Hartley strain); details: Cavia porcellus
Protocol: Inhibitory activities on the release of SRS-A and histamine of the present compounds were determined.
A male guinea pig (Hartley strain) (body weight: about 300 g) was sensitized by a method according to P. Anderson: "Int. Archs. Allergey appln. Immunol., Vol. 64, pages 249-258 (1981). Thus, 30 mg/kg of cyclophosphamide was intraperitoneally administered to the guinea pig, and 2 days after 1 microgram of ovalbumin (manufactured by Sigma Chemical Co., St. Louis, Mo. U. S. A.) together with 10 mg of aluminium hydroxide gel were intraperitoneally administered so as to have the animal sesitized.
50 Days after the sesitization, the animal was killed by exsanguination, and the lung was isolated from the animal and was perfused with 20 ml of Tyrode's solution, then immersed in an ice-cooled Tyrode's solution. The parenchyma of the lung was cut by using McIlwain-type tissue chopper to make it into fragments of lung having 2 mm square and the fragments were washed with Tyrode's solution. 400 Milligrams of sectiles of lung were suspended in 3.6 ml of Tyrode's solution, and this suspension was preincubated at 37° C. for 5 minutes, then 4 microliters of dimethyl sulfoxide solution of the test compound, in the case of control 4 microliters of dimethyl sulfoxide alone was added to the suspension. 5 Minutes after, 0.4 ml of 100 micrograms/ml of ovalbumin solution added so as to release SRS-A for 10 minutes. The suspension was ice-cooled and filtered through gauze, the filtrate was centrifuged at 2,000 rpm for 10 minutes and the supernatant was collected. The supernatant was stored in freezed state at -80° C. until bio-assay was conducted.
Amounts of SRS-A and histamine contained in the supernatant were determined by bio-assay using ileum of guinea pig.
A piece of the ileum (2-3 cm of length) positioned from 15-25 cm from the opening portion of ileocecum was isolated from a male guinea pig (Hartley strain) (body weight: 400-600 g) which was fasted for 24 hours. The piece of ileum was hanged vertically in a Magnus tube which was filled with 10 ml of Tyrode's solution containing 10^-7 M of atropine sulfate under air stream conditions. The isotonic contraction of the piece of the ileum was measured at 0.5 g of load by using an isotonic transducer "TD-112S" (manufactured by Nihon Koden Co., Ltd.). The measurements were carried out after the reaction to histamine of the piece of ileum was kept constant. Bioassay of histamine was measured by using the value of contraction shown in 30 seconds after the addition of the supernatant. Bioassay of on SRS-A was measured by using the value of contraction shown at 2 minutes after the addition of the supernatant in the presence of 10^-6 M of pyrilamine (manufactured by Sigma Chemical Co.), and compared with the standard curve of crude SRS-A released from the fragments of the lung.

[3] = Table 2, dose 3 μM, read-out: Inhibition ratio (%) SRS-A
[4] = Table 2, dose 30 μM, read-out: Inhibition ratio (%) SRS-A
[5] = Table 2B, read-out: Inhibitory activities on SRS-A (%)

CCCC/C=C\CCCCCCCCCC1=CC(=O)C=C(OC)C1=O [Test Compound No. 1, 5-Methoxy-3-(Z-10-pentadecenyl)-1,4-benzoquinone]
inhibition at 30 µM [1]: 87% | inhibition at 3 µM [1]: 13% | inhibition at 10 µM [1]: 81% | inhibition at 1 µM [1]: 10%

CCCC/C=C\CCCCCCCC1=C(O)C(=O)C=C(OC)C1=O [Test Compound No. 2, 5-Methoxy-2-hydroxy-3-(Z-8-tridecenyl)-1,4-benzoquinone]
inhibition at 0.3 µM [1]: 22% | inhibition at 1 µM [1]: 67% | inhibition at 0.1 µM [1]: 10%

COC1=CC(=O)C(O)=C(CCCCCCC/C=C\CCCCCCCC2=C(O)C(=O)C(C)=C(OC)C2=O)C1=O [Test Compound No. 3, 1-(5-Methoxy-2-hydroxy-1,4-benzoquinon-3-yl)-16-(5-methoxy-2-hydroxy-6-methyl-1,4-benzoquinon-3-yl)-Z-8-hexadecene]
inhibition at 30 µM [1]: 96% | inhibition at 3 µM [1]: 95% | inhibition at 0.3 µM [1]: 44% | inhibition at 10 µM [1]: 97% | inhibition at 1 µM [1]: 86% | inhibition at 0.1 µM [1]: 4%

COC1=CC(=O)C(O)=C(CCCCCCCC2OC2CCCCCCCC2=C(O)C(=O)C=C(OC)C2=O)C1=O (centres unmarked) [Test Compound No. 4, 1,16-bis(5-Methoxy-2-hydroxy-1,4-benzoquinon-3-yl)-8,9-epoxyhexadecane]
inhibition at 3 µM [1]: 96% | inhibition at 0.3 µM [1]: 92% | inhibition at 1 µM [1]: 96% | inhibition at 0.1 µM [1]: 66%

COC1=CC(=O)C(OC)=C(CCCCCCCC2OC2CCCCCCCC2=C(OC)C(=O)C=C(OC)C2=O)C1=O (centres unmarked) [Test Compound No. 5, 1,16-(2,5-Dimethoxy-1,4-benzoquinon-3-yl)-8,9-epoxyhexadecane]
inhibition at 3 µM [1]: 86% | inhibition at 0.3 µM [1]: 24% | inhibition at 1 µM [1]: 86% | inhibition at 0.1 µM [1]: 17%

COC1=CC(=O)C(O)=C(CCCCCCC/C=C\CCCCCCCc2cc(O)c(C)c(O)c2)C1=O [Test Compound No. 6, 1-(2-Hydroxy-5-methoxy-1,4-benzoquinon-3-yl)-16-(4-methyl-3,5-dihydroxyphenyl)-Z-8-hexadecene]
inhibition at 0.3 µM [1]: 29% | inhibition at 1 µM [1]: 58% | inhibition at 0.1 µM [1]: 7%

COC1=CC(=O)C(O)=C(CCCCCCC/C=C\CCCCCCCc2cc(O)cc(O)c2)C1=O [Test Compound No. 7, 1-(2-Hydroxy-5-methoxy-1,4-benzoquinon-3-yl)-16-(3,5-dihydroxyphenyl)-Z-8-hexadecene]
inhibition at 3 µM [1]: 80% | inhibition at 0.3 µM [1]: 28% | inhibition at 1 µM [1]: 70% | inhibition at 0.1 µM [1]: 24%

CCCCCCCCCCCCCC1=C(OC)C(=O)C=C(OC)C1=O [Test Compound No. 8, 2,5-Dimethoxy-3-tridecanyl-1,4-benzoquinone]
inhibition at 3 µM [1]: 40% | inhibition at 10 µM [1]: 74% | inhibition at 1 µM [1]: 12%

COC1=C(C)C(=O)C(OC)=C(CCCCCC2=C(OC)C(=O)C(C)=C(OC)C2=O)C1=O [Test Compound No. 17, 2,2'-Pentamethylenebis(3,6-dimethoxy-5-methyl-1,4-benzoquinone)]
inhibition at 0.3 µM [1]: 79% | inhibition at 1 µM [1]: 89% | inhibition at 0.1 µM [1]: 13% | inhibition at 3 µM [2, 3]: 56.3% | inhibition at 30 µM [2, 4]: 83.9%

COC1=C(CCO)C(=O)C(OC)=C(CCCCCC2=C(OC)C(=O)C(CCO)=C(OC)C2=O)C1=O [Test Compound No. 19, 5,5'-Pentamethylenebis[2-(2-hydroxyethyl)-3,6-dimethoxy-1,4-benzoquinone]]
inhibition at 0.3 µM [1]: 74% | inhibition at 1 µM [1]: 87% | inhibition at 0.1 µM [1]: 48% | inhibition at 3 µM [2, 3]: 40.6% | inhibition at 30 µM [2, 4]: 76.6% | inhibition at 3 µM ([2]; Table 2B, 3 μM, read-out: Inhibitory activities on SRS-A (%)): 40.6% | inhibition at 30 µM ([2]; Table 2B, 30 μM, read-out: Inhibitory activities on SRS-A (%)): 76.6%

NC1=CC(=O)C(N)=C(CCCCCC2=C(N)C(=O)C=C(N)C2=O)C1=O [Test Compound No. 52, 2,2'-Pentamethylenebis(3,6-diamino-1,4-benzoquinone)]
inhibition at 1 µM [2, 5]: 10% | inhibition at 10 µM [2, 5]: 16.2%

COC1=CC(=O)C(OC)=C(CCCCCC2=C(OC)C(=O)C(OC)=C(OC)C2=O)C1=O [Test Compound No. 53, 2,3,5-Trimethoxy-6-[5-(2,5-dimethoxy-1,4-benzoquinon-3-yl)pentyl]-1,4-benzoquinone]
inhibition at 1 µM [2, 5]: 50.8% | inhibition at 10 µM [2, 5]: 94.9%

COC1=C(CCCCCC2=C(OC)C(=O)C(OC)=C(OC)C2=O)C(=O)C(OC)=C(OC)C1=O [Test Compound No. 54, 2,2'-Pentamethylenebis(3,5,6-trimethoxy-1,4-benzoquinone)]
inhibition at 1 µM [2, 5]: 32% | inhibition at 10 µM [2, 5]: 88.7%

CC1=C(C)C(=O)C(CCCCCC2=C(C)C(=O)C(C)=C(C)C2=O)=C(C)C1=O [Test Compound No. 55, 2,2'-Pentamethylenebis(3,5,6-trimethyl-1,4-benzoquinone)]
inhibition at 1 µM [2, 5]: 13.2% | inhibition at 10 µM [2, 5]: 38.7%

COC1=CC(=O)C(OC)=C(CC2=C(OC)C(=O)C=C(OC)C2=O)C1=O [compound 22]
inhibition at 1 µM [2, 5]: 37.6% | inhibition at 10 µM [2, 5]: 85.4%
